What was measured:
[1] = Ready-to-use formulation stability at −20° C., 5 mg/mL (R,R)-pyrodach-2 in 10 mM Bicarbonate Buffer at pH 8.6, 10 mL vials; format: physicochemical
[2] = Reversal of PT-112 dimer formation by added pyrophosphate in 5 mg/mL aqueous PT-112 solution at ambient temperature; format: physicochemical
Protocol: Evidence that added pyrophosphate reverses the formation of PT-112 dimer in aqueous formulations of PT-112 was shown in the following experiment. A 5 mg/mL aqueous solution of PT-112 was prepared by dissolving PT-112 in 10 mM potassium phosphate buffer containing added potassium hydroxide such that the final solution pH was ˜6.5. […] The decrease was not accompanied by the formation of the RRT 3.1-3.2 impurity; nor the formation of any new impurities, rather an increase in the concentration of PT-112 was observed.

With O=P1(O)OP(=O)(O)[O][Pt]2([NH][C@@H]3CCCC[C@H]3[NH]2)[O]1 (stereo partly drawn) [(R,R)-pyrodach-2, (R,R)-trans-1,2-cyclohexanediamine-(dihydrogenpyrophosphato)platinum(II)] as the compound, how does the “Potency (Assay)” value ([1]; 1 month) read?
The value was 97.5%.

What about the “Purity (% Area)” value ([1]; 1 month) of the same compound?
Its value is 97.08%.

What about the “Unknown Impurities RRT~0.29” value ([1]; 1 month) of the same compound?
The value was 0.16%.

And the “Unknown Impurities RRT~0.41” value ([1]; 1 month)?
Its value is 0.07%.

What about the “Unknown Impurities RRT~0.44” value ([1]; 1 month) of the same compound?
Its value is 0.09%.

What about the “Unknown Impurities RRT~0.49” value ([1]; 1 month) of the same compound?
The value was 0.94%.

What about the “Unknown Impurities RRT~0.59” value ([1]; 1 month) of the same compound?
Its value is 0.09%.

And the “Unknown Impurities RRT~0.62” value ([1]; 1 month)?
The value was 0.12%.

And the “Unknown Impurities RRT~0.73” value ([1]; 1 month)?
The value was 1.12%.

And the “Unknown Impurities RRT~1.69” value ([1]; 1 month)?
The value was “ND (ND = Not Detected, or <0.05%)”.

And the “Unknown Impurities RRT~2.96” value ([1]; 1 month)?
Its value is “ND (ND = Not Detected, or <0.05%)”.

And the “Unknown Impurities RRT~3.02” value ([1]; 1 month)?
The value was “ND (ND = Not Detected, or <0.05%)”.

What about the “Unknown Impurities RRT~3.12” value ([1]; 1 month) of the same compound?
The value was 0.05%.

And the “Unknown Impurities RRT~3.24” value ([1]; 1 month)?
The value was “ND (ND = Not Detected, or <0.05%)”.

And the “Unknown Impurities RRT~3.30” value ([1]; 1 month)?
Its value is 0.05%.

What about the “Unknown Impurities RRT~3.33” value ([1]; 1 month) of the same compound?
The value was 0.06%.

What about the “Unknown Impurities RRT~3.70” value ([1]; 1 month) of the same compound?
Its value is “ND (ND = Not Detected, or <0.05%)”.

And the “Unknown Impurities RRT~4.02” value ([1]; 1 month)?
Its value is 0.08%.

And the pH ([1]; 1 month)?
The pH was 8.77.

What about the “Potency (Assay)” value ([1]; 6 month) of the same compound?
The value was 98.4%.

And the “Purity (% Area)” value ([1]; 6 month)?
Its value is 96.36%.

What about the “Unknown Impurities RRT~0.29” value ([1]; 6 month) of the same compound?
The value was 0.23%.

What about the “Unknown Impurities RRT~0.41” value ([1]; 6 month) of the same compound?
The value was 0.45%.

And the “Unknown Impurities RRT~0.44” value ([1]; 6 month)?
The value was “ND (ND = Not Detected, or <0.05%)”.

What about the “Unknown Impurities RRT~0.49” value ([1]; 6 month) of the same compound?
Its value is 1.41%.

What about the “Unknown Impurities RRT~0.59” value ([1]; 6 month) of the same compound?
Its value is 0.15%.

What about the “Unknown Impurities RRT~0.62” value ([1]; 6 month) of the same compound?
Its value is “ND (ND = Not Detected, or <0.05%)”.

And the “Unknown Impurities RRT~0.73” value ([1]; 6 month)?
The value was 0.84%.

And the “Unknown Impurities RRT~1.69” value ([1]; 6 month)?
The value was 0.22%.

What about the “Unknown Impurities RRT~2.96” value ([1]; 6 month) of the same compound?
The value was “ND (ND = Not Detected, or <0.05%)”.

And the “Unknown Impurities RRT~3.02” value ([1]; 6 month)?
Its value is “ND (ND = Not Detected, or <0.05%)”.

What about the “Unknown Impurities RRT~3.12” value ([1]; 6 month) of the same compound?
Its value is 0.08%.

What about the “Unknown Impurities RRT~3.24” value ([1]; 6 month) of the same compound?
Its value is “ND (ND = Not Detected, or <0.05%)”.

What about the “Unknown Impurities RRT~3.30” value ([1]; 6 month) of the same compound?
The value was 0.06%.

What about the “Unknown Impurities RRT~3.33” value ([1]; 6 month) of the same compound?
Its value is 0.05%.

And the “Unknown Impurities RRT~3.70” value ([1]; 6 month)?
The value was “ND (ND = Not Detected, or <0.05%)”.

What about the “Unknown Impurities RRT~4.02” value ([1]; 6 month) of the same compound?
Its value is 0.09%.

And the pH ([1]; 6 month)?
The pH was 8.72.

What about the “Potency (Assay)” value ([1]; 12 month) of the same compound?
The value was 86.1%.

And the “Purity (% Area)” value ([1]; 12 month)?
Its value is 90.94%.

And the “Unknown Impurities RRT~0.29” value ([1]; 12 month)?
The value was 0.13%.

And the “Unknown Impurities RRT~0.41” value ([1]; 12 month)?
The value was 5.26%.

And the “Unknown Impurities RRT~0.44” value ([1]; 12 month)?
Its value is “ND (ND = Not Detected, or <0.05%)”.

What about the “Unknown Impurities RRT~0.49” value ([1]; 12 month) of the same compound?
Its value is 1.19%.

What about the “Unknown Impurities RRT~0.59” value ([1]; 12 month) of the same compound?
Its value is 0.27%.

What about the “Unknown Impurities RRT~0.62” value ([1]; 12 month) of the same compound?
Its value is 0.43%.

What about the “Unknown Impurities RRT~0.73” value ([1]; 12 month) of the same compound?
Its value is 0.88%.

What about the “Unknown Impurities RRT~1.69” value ([1]; 12 month) of the same compound?
Its value is 0.25%.

And the “Unknown Impurities RRT~2.96” value ([1]; 12 month)?
The value was 0.08%.

And the “Unknown Impurities RRT~3.02” value ([1]; 12 month)?
The value was 0.09%.

And the “Unknown Impurities RRT~3.12” value ([1]; 12 month)?
Its value is 0.05%.

And the “Unknown Impurities RRT~3.24” value ([1]; 12 month)?
The value was 0.06%.

What about the “Unknown Impurities RRT~3.30” value ([1]; 12 month) of the same compound?
Its value is 0.13%.

What about the “Unknown Impurities RRT~3.33” value ([1]; 12 month) of the same compound?
Its value is 0.06%.

What about the “Unknown Impurities RRT~3.70” value ([1]; 12 month) of the same compound?
The value was 0.09%.

What about the “Unknown Impurities RRT~4.02” value ([1]; 12 month) of the same compound?
Its value is 0.14%.

What about the pH ([1]; 12 month) of the same compound?
The pH was 8.83.

And the “Potency (Assay)” value ([1]; Initial)?
Its value is 100.3%.

And the “Purity (% Area)” value ([1]; Initial)?
The value was 98.04%.

And the “Unknown Impurities RRT~0.29” value ([1]; Initial)?
The value was 0.11%.

And the “Unknown Impurities RRT~0.41” value ([1]; Initial)?
The value was “ND (ND = Not Detected, or <0.05%)”.

And the “Unknown Impurities RRT~0.44” value ([1]; Initial)?
The value was “ND (ND = Not Detected, or <0.05%)”.

And the “Unknown Impurities RRT~0.49” value ([1]; Initial)?
Its value is 0.62%.

What about the “Unknown Impurities RRT~0.59” value ([1]; Initial) of the same compound?
The value was “ND (ND = Not Detected, or <0.05%)”.

And the “Unknown Impurities RRT~0.62” value ([1]; Initial)?
Its value is “ND (ND = Not Detected, or <0.05%)”.

And the “Unknown Impurities RRT~0.73” value ([1]; Initial)?
Its value is 1.05%.

What about the “Unknown Impurities RRT~1.69” value ([1]; Initial) of the same compound?
Its value is “ND (ND = Not Detected, or <0.05%)”.

And the “Unknown Impurities RRT~2.96” value ([1]; Initial)?
Its value is “ND (ND = Not Detected, or <0.05%)”.

And the “Unknown Impurities RRT~3.02” value ([1]; Initial)?
The value was “ND (ND = Not Detected, or <0.05%)”.

What about the “Unknown Impurities RRT~3.12” value ([1]; Initial) of the same compound?
Its value is “ND (ND = Not Detected, or <0.05%)”.

And the “Unknown Impurities RRT~3.24” value ([1]; Initial)?
The value was “ND (ND = Not Detected, or <0.05%)”.

What about the “Unknown Impurities RRT~3.30” value ([1]; Initial) of the same compound?
The value was “ND (ND = Not Detected, or <0.05%)”.

And the “Unknown Impurities RRT~3.33” value ([1]; Initial)?
Its value is “ND (ND = Not Detected, or <0.05%)”.

And the “Unknown Impurities RRT~3.70” value ([1]; Initial)?
The value was “ND (ND = Not Detected, or <0.05%)”.

What about the “Unknown Impurities RRT~4.02” value ([1]; Initial) of the same compound?
The value was “ND (ND = Not Detected, or <0.05%)”.

What about the pH ([1]; Initial) of the same compound?
The pH was 8.60.

And the PT-112 dimer level ([2]; 5 mg/mL in 10 mM potassium phosphate, pH ~6.5, about 24 hours at ambient temperature)?
Its PT-112 dimer level is “about 1.02%”.

And the PT-112 dimer level ([2]; adjusted to ~pH 7.5 plus 0.5 eq. of pyrophosphate, after 9 days at ambient temperature)?
The PT-112 dimer level was “effectively non-detectable level”.

What about the PT-112 dimer concentration ([2]; adjusted to ~pH 7.5 with potassium hydroxide, 7 day period at ambient temperature, no pyrophosphate) of the same compound?
The PT-112 dimer concentration was “progressively decrease”.

What about the PT-112 dimer level ([2]; in the API) of the same compound?
Its PT-112 dimer level is “about 0.33%”.
